In brackets after ≈: the same amount, converted by molar mass.
Assays:
Test in all cases: ≥ marks a high value that may be exact or a test limit, other limits are often not marked, values filed in µg/mL are converted to µM
[1] = tested on: Escherichia coli KCTC 1682
[2] = tested on: Staphylococcus aureus KCTC 1621
[3] = tested on: Enterococcus faecium
[4] = tested on: Enterococcus faecalis
[5] = tested on: Staphylococcus aureus MR
[6] = tested on: Pseudomonas aeruginosa KCTC 1637
[7] = tested on: Staphylococcus epidermidis KCTC 1917
[8] = tested on: Enterococcus faecalis VR
[9] = tested on: Bacillus subtilis KCTC 3068
[10] = tested on: Enterococcus faecium VR
[11] = tested on: Salmonella typhimurium KCTC 1926
[12] = tested on: Klebsiella pneumoniae ATCC BAA-2146
[13] = tested on: Klebsiella pneumoniae
[14] = tested on: Acinetobacter baumannii ATCC 19606
[15] = tested on: Acinetobacter baumannii
[16] = tested on: Pseudomonas aeruginosa
[17] = tested on: Escherichia coli ATCC 25922
[18] = tested on: Bacillus subtilis ATCC 6051
[19] = tested on: Klebsiella pneumoniae ATCC 13883
[20] = tested on: Candida albicans ATCC 90028
[21] = tested on: Staphylococcus aureus ATCC 43300
[22] = tested on: Pseudomonas aeruginosa ATCC 27853
[23] = tested on: Klebsiella pneumoniae ATCC 700603
[24] = tested on: Cryptococcus neoformans ATCC 208821

SMILES | MIC [1] | MIC [2] | MIC [3] | MIC [4] | MIC [5] | MIC [6] | MIC [7] | MIC [8] | MIC [9] | MIC [10] | MIC [11] | MIC [12] | MIC [13] | MIC [14] | MIC [15] | MIC [16] | MIC [17] | MIC [18] | MIC [19] | MIC [20] | further results
CC[C@H](C)[C@H](NC(=O)[C@H](CS)NC(=O)[C@H](Cc1cnc[nH]1)NC(=O)[C@H](C)NC(=O)[C@H](C)N)C(=O)N[C@@H](C)C(=O)N[C@@H](CC(C)C)C(=O)N[C@@H](CCCN=C(N)N)C(=O)N[C@@H](CCCCN)C(=O)NCC(=O)N[C@@H](Cc1ccc(O)cc1)C(=O)N[C@@H](CCCCN)C(N)=O [AAHCIALRKGYK] | 30 µM (≈ 39.9 µg/mL) | 30 µM (≈ 39.9 µg/mL) | 7.5 µM (≈ 9.97 µg/mL) | 30 µM (≈ 39.9 µg/mL) | 30 µM (≈ 39.9 µg/mL) | 30 µM (≈ 39.9 µg/mL) | 30 µM (≈ 39.9 µg/mL) | 15 µM (≈ 19.9 µg/mL) | 30 µM (≈ 39.9 µg/mL) | 30 µM (≈ 39.9 µg/mL) | 30 µM (≈ 39.9 µg/mL) |  |  |  |  |  |  |  |  |  | 
CC[C@H](C)[C@H](NC(=O)[C@H](C)N)C(=O)N[C@@H](CCCN=C(N)N)C(=O)N[C@@H](CS)C(=O)N[C@@H](CC(C)C)C(=O)N[C@@H](C)C(=O)N[C@@H](CCCCN)C(=O)N[C@@H](CCCN=C(N)N)C(=O)N[C@@H](CCCN=C(N)N)C(=O)N[C@@H](CCCCN)C(N)=O [AIRCLAKRRK] | 30 µM (≈ 36.4 µg/mL) | 7.5 µM (≈ 9.1 µg/mL) | 3.8 µM (≈ 4.61 µg/mL) | 30 µM (≈ 36.4 µg/mL) | 7.5 µM (≈ 9.1 µg/mL) | 7.5 µM (≈ 9.1 µg/mL) | 7.5 µM (≈ 9.1 µg/mL) | 30 µM (≈ 36.4 µg/mL) | 7.5 µM (≈ 9.1 µg/mL) | 15 µM (≈ 18.2 µg/mL) | 7.5 µM (≈ 9.1 µg/mL) |  |  |  |  |  |  |  |  |  | 
CC[C@H](C)[C@@H]1NC(=O)CNC(=O)[C@H](CCCN=C(N)N)NC(=O)[C@H](Cc2ccc(O)cc2)NC(=O)[C@@H]2CSSC[C@H](NC1=O)C(=O)N[C@@H](C)C(=O)N[C@@H](CCCN=C(N)N)C(=O)N[C@@H](CCCN=C(N)N)C(=O)N[C@H](C(=O)N[C@@H](CCCN=C(N)N)C(=O)O)CSSC[C@H](NC(=O)[C@H](Cc1c[nH]c3ccccc13)NC(=O)[C@@H](N)CCCCN)C(=O)N[C@@H](Cc1ccccc1)C(=O)N[C@@H](CCCN=C(N)N)C(=O)N[C@@H](C(C)C)C(=O)N2 [KWCFRVCYRGICARRCR] |  |  |  |  |  |  |  |  |  |  |  | 0.23 µM (≈ 0.499 µg/mL) | 3.68 µM (≈ 7.99 µg/mL) | 0.0574 µM (≈ 0.125 µg/mL) | 0.115 µM (≈ 0.25 µg/mL) | 0.919 µM (≈ 2 µg/mL) | 0.115 µM (≈ 0.25 µg/mL) | 0.0276 µM (≈ 0.06 µg/mL) | 0.115 µM (≈ 0.25 µg/mL) | 1.84 µM (≈ 3.99 µg/mL) | MIC [21]: 1.84 µM (≈ 3.99 µg/mL); MIC [22]: 0.23 µM (≈ 0.499 µg/mL); MIC [23]: 0.23 µM (≈ 0.499 µg/mL); MIC [24]: 0.23 µM (≈ 0.499 µg/mL)

Now from value to molecule, other results behind:

MIC [1] | MIC [2] | MIC [3] | MIC [4] | MIC [5] | MIC [6] | MIC [7] | MIC [8] | MIC [9] | MIC [10] | MIC [11] | MIC [12] | MIC [13] | MIC [14] | MIC [15] | MIC [16] | MIC [17] | MIC [18] | MIC [19] | MIC [20] | SMILES | further results
30 µM (≈ 28.8 µg/mL) | 30 µM (≈ 28.8 µg/mL) | 30 µM (≈ 28.8 µg/mL) | 30 µM (≈ 28.8 µg/mL) | 30 µM (≈ 28.8 µg/mL) | 30 µM (≈ 28.8 µg/mL) | 30 µM (≈ 28.8 µg/mL) | 30 µM (≈ 28.8 µg/mL) | 30 µM (≈ 28.8 µg/mL) | 30 µM (≈ 28.8 µg/mL) | 30 µM (≈ 28.8 µg/mL) |  |  |  |  |  |  |  |  |  | CC[C@H](C)[C@H](NC(=O)[C@H](CS)NC(=O)[C@H](CC(N)=O)NC(=O)[C@H](C)NC(=O)[C@H](C)N)C(=O)N[C@H](C(=O)N[C@@H](CC(C)C)C(=O)NCC(=O)N[C@@H](CCCCN)C(=O)N[C@@H](C)C(N)=O)[C@@H](C)O [AANCITLGKA] | 
 |  |  |  |  |  |  |  |  |  |  | 7.47 µM (≈ 16 µg/mL) | > 7.47 µM | 1.87 µM (≈ 4 µg/mL) | 1.87 µM (≈ 4 µg/mL) | > 7.47 µM | 3.74 µM (≈ 8 µg/mL) | 0.467 µM (≈ 1 µg/mL) | 7.47 µM (≈ 16 µg/mL) | 7.47 µM (≈ 16 µg/mL) | CC[C@H](C)[C@H](NC(=O)CNC(=O)[C@H](CCCNC(=N)N)NC(=O)[C@H](Cc1ccc(O)cc1)NC(=O)[C@H](C)NC(=O)[C@@H](NC(=O)[C@H](CCCNC(=N)N)NC(=O)[C@H](Cc1ccccc1)NC(=O)[C@H](C)NC(=O)[C@H](Cc1c[nH]c2ccccc12)NC(=O)[C@@H](N)CCCCN)C(C)C)C(=O)N[C@@H](C)C(=O)N[C@@H](Cc1ccc(O)cc1)C(=O)N[C@@H](CCCNC(=N)N)C(=O)N[C@@H](CCCNC(=N)N)C(=O)N[C@@H](C)C(=O)N[C@@H](CCCNC(=N)N)C(N)=O [KWAFRVAYRGIAYRRAR] | MIC [21]: 7.47 µM (≈ 16 µg/mL); MIC [22]: > 7.47 µM; MIC [23]: 7.47 µM (≈ 16 µg/mL); MIC [24]: 0.467 µM (≈ 1 µg/mL)

Source: DBAASP
